Where two headings read alike, the source gives them in different places.
Legend:
type-2 5AR = system: type-2 5AR; parameters: method as in PMID 16964191, PMID 16719800; details: previous in vitro studies; cited from earlier work
[1] = Stability in rat plasma (QC samples); format: in vitro ADME; details: n = 5; for Stability (percent drug remaining), Autosampler: 10 °C for 24 h in the autosampler; for Stability (percent drug remaining), Bench-Top: room temperature for 3 h; for Stability (percent drug remaining), Freeze-Thaw: three freezing and thawing cycles; for Stability (percent drug remaining), Long-Term: −20 °C for 30 days
Description: The bioanalytical method proposed herein for the simultaneous determination of DUT and H-DUT was fully validated on the basis of the US FDA guideline. The selectivity of the method was evaluated by comparing chromatograms of the analytes (DUT, H-DUT, and internal standard) in blank rat plasma, blank rat plasma spiked with the analytes, and rat plasma sample obtained from the in vivo rat pharmacokinetic study. Further, the existence of potential interferences at the acquisition windows of the analytes was checked. The linearity of the method was evaluated by adding increasing amounts of DUT and H-DUT to the blank plasma. To construct calibration curves (n = 5), the peak area ratios of DUT or H-DUT to the internal standard (y-axis) were plotted against the nominal concentration ratios of DUT or H-DUT (10–1000 ng/mL) to the internal standard (400 ng/mL) (x-axis), and then, linear regression analysis was performed. The sensitivity was assessed by estimating the LLOQ (signal-to-noise [S/N] ratio > 5). The peaks of the analytes at the LLOQ should be discrete, identifiable, and reproducible with acceptable precision (<20%) and accuracy (within 80–120%). The extraction recovery, matrix effect, dilution integrity, and stability (under bench-top, freeze–thaw, post-preparative, and long-term conditions) in addition to the intra-assay (five different samples) and inter-assay (five different runs) precision and accuracy for each analyte were determined at the LLOQ and three different QC levels as described in the US FDA guidelines and in previous studies.

[2] = In vivo pharmacokinetic study in rats, oral DUT without or with KET; parameters: species or system rat; details: for AUC(0-t) / Cmax: po, 5 mg/kg
Source text: The animal experiment protocols used in the present study were approved by the Pusan National University-Institutional Animal Care and Use Committee for scientific care and ethical procedures (Busan, Korea; approval date: 01/05/2018; approval number: PNU-2018-1848). Male Sprague–Dawley rats (8-week-old; approximately 250 g) were purchased from DBL Co., Ltd. (Incheon, Korea). The rats were acclimatized in a clean room of the Laboratory Animal Center of Pusan National University (Busan, Korea) for 1 week. Then, they were fasted for 12 h prior to the pharmacokinetic experiment and then anesthetized by intramuscular injection of Zoletil at a dose of 20 mg/kg. The femoral vein and artery of the rats were cannulated with a polyethylene tube (BD Medical; Franklin Lakes, NJ, USA). At approximately 4–6 h after the surgery for cannulation, an intravenous dose of DUT (2.5 mg/kg) simultaneously with or without intravenous KET ([…]) was administered to the rats. Drugs were dissolved in a vehicle consisting of dimethyl sulfoxide, ethanol, and polyethylene glycol 400 at a ratio of 10:5:85 (v/v/v). Blood (approximately 200 μL) was collected in heparin pre-treated microcentrifuge tubes via the femoral artery at 0, 1, 5, 15, 30, 60, 120, 180, 240, 360, 480, and 1200 min after the intravenous dose and at 0, 5, 15, 30, 60, 120, 150, 180, 240, 360, 480, and 1200 min after the oral dose. Following centrifugation of the blood samples at 3000× g at 4 °C for 10 min [19], 100 μL aliquots of plasma were stored at −80 °C.
The half maximal inhibitory concentration (IC50) of KET for the inhibition of the DUT metabolism was determined by the nonlinear regression analysis (GraphPad Prism ver. 5.01; GraphPad Software Inc., San Diego, CA, USA) based on the following Hill equation: y = Min + Max−Min/1 + (x/IC50)^-P where Max and Min are the initial and final y value, respectively, and the exponent P represents the Hill coefficient. Peak plasma concentration (Cmax) and time to reach Cmax (Tmax) were read directly from the observed data. Non-compartmental analysis was conducted to estimate pharmacokinetic parameters such as total area under plasma concentration versus time curve from time zero to time of last sampling (AUClast), total area under plasma concentration versus time curve from time zero to infinity (AUCinf), total plasma clearance (CL), volume of distribution at steady state (Vss), and terminal half-life (t1/2) using the NCA200 and 201 models of WinNonlin ver. 3.1 (Certara USA Inc., Princeton, NJ, USA).

[3] = male, Sprague-Dawley, rat, plasma, oral DUT 5 mg/kg with oral KET (20 mg/kg), n = 4
[4] = male, Sprague-Dawley, rat, plasma, oral DUT 5 mg/kg, DUT alone, n = 4

C[C@]12C=CC(=O)N[C@@H]1CC[C@@H]1[C@@H]2CC[C@]2(C)[C@@H](C(=O)Nc3cc(C(F)(F)F)ccc3C(F)(F)F)CC[C@@H]12 [DUT, Dutasteride]
more potent inhibition of type-2 5AR compared to finasteride (type-2 5AR): 2.5 fold
Stability (percent drug remaining), Autosampler ([1]; HQC 750 ng/mL): 102 ± 2%
Stability (percent drug remaining), Bench-Top ([1]; HQC 750 ng/mL): 102 ± 0%
Stability (percent drug remaining), Freeze-Thaw ([1]; HQC 750 ng/mL): 100 ± 0%
Stability (percent drug remaining), Long-Term ([1]; HQC 750 ng/mL): 105 ±1%
Stability (percent drug remaining), Autosampler ([1]; LLOQ 10 ng/mL): 103 ± 8%
Stability (percent drug remaining), Bench-Top ([1]; LLOQ 10 ng/mL): 108 ± 1%
Stability (percent drug remaining), Freeze-Thaw ([1]; LLOQ 10 ng/mL): 99.3 ± 4.7%
Stability (percent drug remaining), Long-Term ([1]; LLOQ 10 ng/mL): 105 ± 5%
Stability (percent drug remaining), Autosampler ([1]; LQC 30 ng/mL): 103 ± 1%
Stability (percent drug remaining), Bench-Top ([1]; LQC 30 ng/mL): 105 ± 6%
Stability (percent drug remaining), Freeze-Thaw ([1]; LQC 30 ng/mL): 99.7 ± 2.7%
Stability (percent drug remaining), Long-Term ([1]; LQC 30 ng/mL): 102 ± 4%
Stability (percent drug remaining), Autosampler ([1]; MQC 150 ng/mL): 104 ± 2%
Stability (percent drug remaining), Bench-Top ([1]; MQC 150 ng/mL): 103 ± 1%
Stability (percent drug remaining), Freeze-Thaw ([1]; MQC 150 ng/mL): 106 ± 2%
Stability (percent drug remaining), Long-Term ([1]; MQC 150 ng/mL): 100 ± 1%
concentration at 30 min ([2]; male, Sprague-Dawley, rat, plasma sample collected at 30 min after oral DUT 5 mg/kg, representative chromatogram): 276 ng/mL
Tmax ([2]; male, Sprague-Dawley, rat, plasma, oral DUT 5 mg/kg, DUT alone, median (range), n = 4, read-out: Tmax (converted)): 1 h
AUC(0-t) [2, 3]: 6470 ng·h/mL
Cmax [2, 3]: 419 ± 27 ng/mL
AUC(0-t) [2, 4]: 4580 ng·h/mL
Cmax [2, 4]: 289 ± 10 ng/mL
Tmax ([2]; oral DUT 5 mg/kg with oral KET (20 mg/kg), median, n = 4): 1 h
